In ChEMBL document CHEMBL1157539, “Thousands of chemical starting points for antimalarial lead identification” (Nature, 2010) one finds XC50 data, which are given here for 63 molecules.

The test system of the assay is Plasmodium falciparum. Nature of the assay: GSK_TCMDC: Inhibition of Plasmodium falciparum 3D7 in whole erythrocytes, using parasite LDH activity as an index of growth. In kind it is functional, organism-based. The conditions noted are these: Plasmodium falciparum, 3D7.

In turn, `O=C(CCc1c[nH]cn1)Nc1cccc(-c2cccc(-c3nc4ccccc4[nH]3)c2)c1` yielded an XC50 of 660 nM.

As to `CCN(CC)CCN(Cc1ccc(-c2ccc(C(F)(F)F)cc2)cc1)C(=O)Cn1c(CCc2ccc(F)c(F)c2F)nc(=O)c2cccnc21`, the XC50 came out at 1130 nM.

`CCOc1cc(C(=O)NC2CC(C)(C)NC(C)(C)C2)ccc1-c1nc2cc(Cl)ccc2[nH]1` gave an XC50 of 992 nM.

`CN1CCN(CCCN(Cc2ccc(-c3cccc(CNC4CCCC4)c3)cc2)C(=O)Nc2ccccc2)CC1` registered an XC50 of 1120 nM.

Regarding `CS(=O)(=O)CCNCc1nc(-c2ccc3c(Nc4ccc(Oc5ccccn5)cc4)ccnc3c2)cs1`, the XC50 was found to be 675 nM.

Take `CN1CCN=C1c1ccc(NC(=O)Nc2ccc(C3=NCCN3C)cc2)cc1`: the XC50 turned out to be 379 nM.

Consider `Cc1cc(C)c(C)c(S(=O)(=O)N2CCCCC(c3ccc(F)c(F)c3)=N2)c1C`, for which the XC50 was 706 nM.

In turn, `O=C(/C=C/c1ccc(Cl)c(Cl)c1)NCCCCCN1CCCN(C(=O)Nc2ccc(F)c(F)c2)CC1` yielded an XC50 of 803 nM.

`NCCCOc1cnc(-c2ccccc2)c2nc(-c3nonc3N)n(CCc3ccccc3)c12`: the XC50 was 1270 nM.

For the molecule `Cc1nc(N/C(N)=N/C(=O)NC2CCCCC2)nc2ccccc12`, the XC50 was found to be 791 nM.

`CN(CCCNCc1cccc2ccccc12)CCCNCc1cccc2ccccc12` had an XC50 of 722 nM.

In turn, `COc1ccccc1N1CCN(CCCCNC(=O)c2ccc(NC(=O)c3ccc(C(F)(F)F)cc3)cc2)CC1` yielded an XC50 of 304 nM.

As to `Cc1cccc(/C=C/C(=O)NC2CCC(N3CCC(c4ccccc4C)CC3)CC2)c1` (stereo not drawn), the XC50 was 1110 nM.

Regarding `Cc1ccc(C(=O)Nc2ccc(-c3nc4ccccc4[nH]3)cc2)cc1S(=O)(=O)N1CCOCC1`, the XC50 stood at 1210 nM.

`O=C(/C=C/c1ccc(Cl)c(Cl)c1)NC1CCN(CCNC(=O)c2cccc(Cl)c2)CC1`: the XC50 was 550 nM.

On to `CC(=O)Nc1ccc(C(=O)Nc2cccc(-c3ccc(-c4nc5cc(C(F)(F)F)ccc5[nH]4)cc3)c2)cn1`, for which the XC50 was 231 nM.

`Cc1cc(C(=O)Nc2ccc3c(c2)CCN3C2CCN(Cc3cccc4cc[nH]c34)C2)no1` (stereo not drawn) yielded an XC50 of 189 nM.

In turn, `COc1ccc(CNc2nc(NCc3ccc(C(F)(F)F)cc3)c3cc(OC)c(OC)cc3n2)cc1OC` had an XC50 of 210 nM.

The molecule `COc1cc(Nc2nccc(N3CCC(NC(=O)c4cccc(NC(C)=O)c4)C3)n2)cc(OC)c1OC` (stereo not drawn) displayed an XC50 of 828 nM.

With `COc1ccc(C=NNc2nc(O)cc(-c3ccccc3)n2)cc1OC`, the XC50 is 595 nM.

In turn, `Cc1cc2c(cc1C(F)(F)F)N(C(=O)Nc1cc(OCCN(C(C)C)C(C)C)cc(C(F)(F)F)c1)CC2` registered an XC50 of 259 nM.

Molecule `CCCc1cc(N2CCC(N(CC)CC)C2)nc(Nc2ccc(OC)cc2)n1` (stereo not drawn) registered an XC50 of 168 nM.

For the molecule `CCCCn1c(C(C)Oc2ccc(Cl)cc2Cl)nc2cc(S(N)(=O)=O)ccc21` (stereo not drawn), the XC50 was 707 nM.

Molecule `CCN1CCC(N(Cc2ccc(-c3ccc(C(F)(F)F)cc3)cc2)C(=O)Cn2nc(C)c(=O)cc2SCc2ccc(F)cc2)CC1` came in with an XC50 of 1010 nM.

`CC(C)C(=O)Nc1c(F)cc(F)cc1CCc1ccc(O)cc1` gave an XC50 of 504 nM.

Molecule `FC(F)(F)COc1ccc(CNCCCCCCNCc2ccc(OCC(F)(F)F)c3ccccc23)c2ccccc12` had an XC50 of 400 nM.

On to `CN(CCCc1c[nH]c2ccccc12)CCC1CCC(NC(=O)/C=C/c2ccc(Cl)c(Cl)c2)CC1` (stereo not drawn), for which the XC50 was 650 nM.

`CCCCCCCCOc1c(OCC)cc(Cc2cnc(N)nc2N)cc1OCC`: the XC50 came to 1530 nM.

Take `CCCn1c(O)nnc1SCC(=O)Nc1cc(Cl)ccc1Cl`: the XC50 came to 997 nM.

`CCOC(=O)C(C(=O)OCC)c1nc(C)ns1` came in with an XC50 of 471 nM.

In turn, `CC(=O)Nc1ccc(CN(Cc2ccc(F)cc2)Cc2ccc3c(c2)OCO3)cc1` had an XC50 of 943 nM.

For `Cc1ccc([N+](=O)[O-])cc1NC(=O)N(CC(O)c1ccccc1)C1CCCCC1` (stereo not drawn), the XC50 amounted to 730 nM.

As for `O=C(Nc1nc2cc(S(=O)(=O)NCCc3ccc(F)cc3)ccc2n1CCCn1ccnc1)c1ccc(Cl)cc1`, the XC50 was 1110 nM.

Regarding `CCCc1ccc(NC(=O)c2ccc(CN3CCCN(CC4CCCCC4)CC3)cc2)cc1`, the XC50 came out at 524 nM.

In turn, `CC(=O)Oc1c(C2CCN(CCCCNC(=O)c3ccc(-c4ccc(C#N)cc4)cc3)CC2)ccc2c1CCCC2` showed an XC50 of 1130 nM.

Regarding `CC(=O)c1sc2ccccc2c1O`, the XC50 came out at 880 nM.

The molecule `COc1cccc(CNC(=O)c2ccnc(-c3ccc(CNCCOc4ccccc4)cc3)c2)c1` came in with an XC50 of 1200 nM.

In turn, `COc1cc(OC)cc(-c2nn(-c3ccc([N+](=O)[O-])cc3Cl)c(=S)n2Cc2ccco2)c1` displayed an XC50 of 838 nM.

`COc1ccc(CNC2CCN(C)CC2)cc1-c1ccc(S(=O)(=O)NCc2ccccc2)c(C)c1` yielded an XC50 of 992 nM.

Turning to `CC(=O)c1c[nH]c2ccc(/C=C/C(=O)NC3CCC(CCN4CCc5ccc(C#N)cc5CC4)CC3)cc12` (stereo not drawn), the XC50 worked out at 496 nM.

The molecule `NCC(=O)Nc1cccc(Nc2nccc(-c3c(-c4cccc(NC(=O)c5ccccc5)c4)nn4ccccc34)n2)c1` yielded an XC50 of 432 nM.

Take `FC(F)(F)c1ccc2[nH]c(-c3cccc(-c4cccc(CNCCN5CCNCC5)c4)c3)nc2c1`: the XC50 stood at 937 nM.

In the case of `CCNc1cc(C)nc(Nc2ccc(C)cc2)n1`, the XC50 was found to be 730 nM.

As for `NOCCCCOc1ccc(Br)cc1`, the XC50 was 189 nM.

Regarding `Cc1ccc(C(NC(=O)c2ccccc2)c2ccc3cccnc3c2O)cc1` (stereo not drawn), the XC50 was determined as 961 nM.

For `O=C(CCCCCNC(=O)c1ccc(O)c(-c2ccc(Cl)c(Cl)c2)c1)NCCN1CCCC1`, the XC50 came to 980 nM.

The molecule `O=C(Nc1ccc(C(=O)Nc2cccc(C3=NCCN3)c2)cc1)Nc1ccc(C2=NCCN2)cc1` came in with an XC50 of 96 nM.

For the molecule `Cc1cc(-c2ccc(CNC3CCN(C)CC3)cc2)ccc1S(=O)(=O)NCc1ccccc1`, the XC50 was determined as 851 nM.

`CCCCCCN1CCCN(Cc2cccc(C(=O)Nc3ccc(C(C)(C)C)cc3)c2)CC1` had an XC50 of 943 nM.

In turn, `Fc1cccc(Nc2nc(NCCc3ccc(Cl)cc3)nc(Nc3cccc(F)c3)n2)c1` showed an XC50 of 1070 nM.

`Cc1nc2ccc3nc(NC(=O)c4ccno4)sc3c2s1`: the XC50 amounted to 656 nM.

With `CC(C)(C)Nc1nc(Nc2cccc([N+](=O)[O-])c2)nc(-n2ccnc2)n1`, the XC50 turned out to be 811 nM.

For the molecule `O=C(Cc1cccc(O)c1)NCC(Cc1ccc(O)cc1)c1ccccc1` (stereo not drawn), the XC50 came out at 643 nM.

Molecule `Clc1ccc2c(NCCCCCCCCNc3ccnc4cc(Cl)ccc34)ccnc2c1` came in with an XC50 of 482 nM.

Turning to `COc1ccc2cc(C(C)NC3CCN(c4cccc(NC(=O)c5ccncc5)c4)CC3)ccc2c1` (stereo not drawn), the XC50 worked out at 1550 nM.

As for `CCN(CCCN1CCCCC1)c1cc(C)nc(Nc2ccc(C)c(Cl)c2)n1`, the XC50 came to 207 nM.

On to `NCC(=O)c1cc2c(cc1N)OCCO2`, for which the XC50 turned out to be 1360 nM.

Turning to `CC(C)(C)c1ccc(CN2CCC(NC(=O)c3ccc(-c4cccc(Cl)c4)s3)CC2)cc1`, the XC50 amounted to 1070 nM.

The molecule `Cc1cc(=O)c2cc(Oc3cccc(OC(F)(F)F)c3)ccc2[nH]1` had an XC50 of 862 nM.

`Cc1ccc(NC(=O)c2ccc(CN3CCCN(Cc4cccc(O)c4)CC3)cc2)cc1C` had an XC50 of 864 nM.

In the case of `COc1ccc(NC(=O)NCC2CCCN(CCCCCNC(=O)/C=C/c3ccc(Cl)c(Cl)c3)C2)c(OC)c1` (stereo not drawn), the XC50 was determined as 859 nM.

`CS(=O)(=O)CCNCc1ccc(-c2ccc3c(Nc4ccc(Cl)cc4F)ccnc3c2)o1` displayed an XC50 of 668 nM.

`OC(CNc1ccnc(Nc2cccc(Cl)c2)n1)c1cccc(F)c1` (stereo not drawn) yielded an XC50 of 973 nM.
